Experimental data: US6340708B1, “Pharmaceutical composition comprising at least one aminopeptidase A inhibitor” (Institut National de la Sante et de la Recherche Medicale …, priority 1998, dated 2002)
“Also recorded” adds a separate entry of the source.

Tests used:
[1] = test system: formation of angiotensin III from [3H]AngII in hypothalamus; assay: In vivo metabolism of tritiated AngII/AngIII in murine hypothalamus after i.c.v. injection; set-up: species or system mouse; details: mice
Method: Male Swiss mice (available from the IFFA Credo Institute) weighing 18 to 20 grams are maintained under artificial light (12 hours in bright phase - 12 hours in half-light) and have food and water available ad libitum. The experiments are carried out between 9 o'clock and 11 o'clock in the morning. The drugs are administered into the lateral ventricle by the intracerebroventricular route (i.c.v) at an amount of 5 μl per mouse according to the method of Haley and McCormick (Br. J. Pharmacol. 12, 12-15).
For each experiment, six to eight mice are used for each of the conditions. A mixture of 2×10^6 cpm of [^3H]Ang II and 30 μg of unlabelled Ang II is administered in a 5 μl volume, alone or together with EC33 (30 μg). The inhibitors are dissolved in an isotonic saline solution adjusted to a pH of 7.4 with 0.01 M NaOH solution. At various times after the injection, the mice are decapitated, their brains are removed and their hypothalami are dissected on ice and homogenized by sonication (ultrasons, Anemasse, France) in 10 volumes of a 0.1 M HCl solution cooled in ice. […]
The respective amounts of labelled angiotensins II and III present in the hypothalamus are determined according to the protocol of Ledwith et al. (Anal. Biochem. 213, 349-355). […] The F1 and F2 fractions are then analysed by HPLC to determine their respective content of tritiated angiotensin II and tritiated angiotensin III.
With the aim of an HPLC analysis, the F1 and F2 fractions are initially concentrated by extraction on a C18 Sep-pak® Cartridges device (Waters). […] After elution on Sep-pak®, the respective F1 and F2 fractions are freeze-dried, dissolved in 0.2 ml of a 0.01 M acetic acid solution, with 20 ng of angiotensin II and of angiotensin III as internal standard, and analysed by HPLC.
The HPLC analysis is carried out using an H Hypersil ODS®-3 μm reverse phase column (Shandon, Pittsburgh) heated to 45° C., then with an isocratic elution at a flow rate of 0.6 ml per minute. […] Their radioactivity content is estimated with a beta counter. […]

[2] = test system: arterial pressure of WKY normotensive and SHR hypertensive rats; assay: Mean arterial pressure in anaesthetized WKY and SHR rats after i.c.v. injection; format: in vivo, rat; details: for maximum hypotensive effect (change in arterial pressure): 100 μg i.c.v.; for antagonist effect on PC18-induced increase in arterial pressure: Losartan 10 μg pretreatment, PC18 60 μg
Excerpt: The rats used are male Sprague-Dawley rats weighing 200 to 250 grams; some of them are 11-week-old rats (SHR). Wistar Kyoto normotensive rats are also used as controls. The animals are kept for one week with alternating 12-hour periods of light and half-light, and have water and food available ad libitum. For each experiment, the SHR and WKY rats are weighed, and their arterial pressure and cardiac rhythm are continuously recorded via an invasive route after inserting a catheter (PE 50) into the femoral artery. The catheter is linked to a pressure sensor (COBE) and connected to a signal processor which is linked to an amplifier. The computer system comprises a MacLab interface system and application software (Chart and Scope) which allows data acquisition and calculation through a Macintosh computer.
These experiments are carried out in Wistar Kyoto (WKY) normotensive rats or spontaneously hypertensive rats (SHR 12 weeks old).
The animals are anaesthetized with Inactin (5-ethyl-2-(1′-methylpropyl)-2-thiobarbita), this being an anaesthetic which is used regularly in renal or cardiovascular physiology experiments. Its properties are to cause a very slight drop in arterial pressure, which is visible only in SHR rats, and especially to allow a stable basal arterial pressure to be maintained throughout the experiment.
The mean arterial pressure (systolic+diastolic) is measured continuously, via an invasive route, after catheterizing the femoral artery. The peptides or the inhibitors, are injected via the intracerebroventricular (i.c.v.) route with the aid of a cannula positioned in the lateral ventricle under stereotaxy (Stereotaxic Atlas; G. Paxinos and C. Watson, Academic Press, 1986).
The experiments are carried out on groups of 4 to 20 individually analysed animals. The results on batches of control animals and treated animals were compared with the aid of an analysis of variance (ANOVA), followed by an unpaired Student's test.
An injection of angiotensin II is carried out combined, where appropriate, with a consecutive injection of EC33.
In accordance with the protocol described in Example 3, AngIII (10 ng) in the presence of 60 μg of PC18 is injected into SHR rats. As a control test, an injection of PC18 alone is carried out.

[3] = test system: arterial pressure of conscious SHR rats; assay: Arterial pressure in conscious SHR rats after i.c.v. or i.v. injection; format: in vivo, rat
Method: These experiments are carried out in a 12-week-old SHR rats (300-350 g). During the operation, the animals are anaesthetized for a limited time (3 hours) with sodium pentobarbital (50 mg/kg intraperitoneal, Laboratoire Sentravet, Plancoët, France) The experiments are carried out a minimum of 24 hours after the operation.
The injections are carried out with the aid of a cannula positioned in the lateral ventricle under stereotaxy, and the arterial pressure is measured continuously, via an invasive route, after catheterizing the femoral artery. The catheter is exteriorized at the level of the animal's neck, and is linked to a fixing system which allows the rat to move around freely in its cage.
A first catheter is positioned in the femoral vein in order to carry out the injections, a second catheter is introduced into the femoral artery in order to be able to measure arterial pressure continuously. Both catheters are then exteriorized as indicated above.

aminopeptidase A (APA) = assay: Measurement of APA activity in vitro (GluβNa hydrolysis, purified APA); details: APN versus APA
Excerpt: In vitro, in the presence of calcium ions, APA hydrolyses α-L-glutamyl-β-naphthylamide (gluβNa) to glutamate and β-naphthylamine (βNa). A diazotation reaction in acid medium makes it possible to reveal the β-naphthylamine by formation of a violet-coloured complex: spectrophotometric measurement then makes it possible to know the amount of complex formed and, by reference to a standard curve produced with increasing concentrations of β-naphthylamine, to deduce therefrom the enzymatic activity of the sample.
The GluβNa substrate and the β-naphthylamine (Bachem) are dissolved in DMSO (dimethyl sulphoxide) and 0.1 N HCl respectively, and conserved at −20° C. at a concentration of 10^−2 M. The diazotation reaction is carried out in the presence of sodium nitrite (87 mM), ammonium sulphamate (130 mM) and N-(1-naphthyl)-ethylenediamine dihydrochloride (23 mM).
The reaction takes place at pH 7.4 in 50 mM tris-HCl buffer, in the presence of calcium (4 mM CaCl2); the sample to be assayed is incubated at 37° C. in the presence of substrate (200 μM GluβNa) and in the presence or absence of various concentrations of the inhibitor to be tested, in a final volume of 100 μl. The reaction is stopped by adding 10 μl of 3N HCl. A standard curve of β-naphthylamine in acid medium (add 10 μl of 0.1 N HCl) is produced in parallel.
The following are added to each well: […]

Compound: N[C@H](CS)CCS(=O)(=O)[O-].[Na+] [EC33, sodium (S)-3-amino-4-mercaptobutylsulphonate]
- formation of tritiated AngIII in hypothalamus ([1]; EC33 30 μg i.c.v.): immediately blocked; also recorded: totally blocks
- half-life of [3H]AngII in hypothalamus ([1]; EC33 30 μg i.c.v. with [3H]AngII and 30 μg AngII): 5.38 ± 0.21 min
- [3H]AngII content in hypothalamus, times the content of the control test ([1]; EC33 30 μg i.c.v., between 0.5 and 7 minutes): approximately 11
- effect on the AngII-induced increase in arterial pressure ([2]; AngII 10 ng with EC33 100 μg i.c.v.): completely eliminated
- modification of the effect on pressure of AngIII ([2]; AngIII 30 ng with EC33 i.c.v.): ineffectiveness
- maximum hypotensive effect (change in arterial pressure) ([2]; hypertensive (SHR) anaesthetized rats): −28 mmHg
- maximum hypotensive effect (change in arterial pressure) ([2]; normotensive (WKY) anaesthetized rats): −22 mmHg
- decrease in arterial pressure ([3]; 100 μg i.c.v.): −26 mmHg
- duration of hypotensive effect ([3]; 100 μg i.c.v.): 40 min
- hypotensive effect ([3]; 45 mg/kg i.v.): does not induce a significant hypotensive effect

Compound: CCCCc1nc(Cl)c(CO)n1Cc1ccc(-c2ccccc2-c2nn[nH]n2)cc1 [Losartan]
- antagonist effect on PC18-induced increase in arterial pressure ([2]; hypertensive rats): about 52%
- antagonist effect on PC18-induced increase in arterial pressure ([2]; normotensive rats): about 85%

Compound: CSCC[C@H](N)CS [PC18, methioninethiol]
- effect on the pressure effect of AngIII ([2]; AngIII 10 ng with PC18 60 μg i.c.v., SHR rats): potentiation
- increase in arterial pressure ([2]; PC18 60 μg i.c.v., normotensive rats): +10 mmHg
- duration of pressure effect ([2]; PC18 alone 60 μg i.c.v., SHR rats): approximately 12 minutes
- times less active on APA than on APN (aminopeptidase A (APA)): 1000

Compound: angiotensin II (DRVYIHPF; Angiotensin-2; UniProt P01019 25-32, looked up) [ANGII, angiotensin II peptide available from Amersham or Sigma]
- maximum magnitude of increase in arterial pressure ([2]; AngII 10 ng i.c.v., WKY and SHR rats): approximately 10 mmHg
